Assay results reported in patent US9757393B2 (priority 2015, dated 2017).

Columns and labels:
Type in all cases: in vivo, C57BL/6J mice
PPARα mRNA = test: Semiquantitative RT-PCR, liver tissue: PPARα; conditions: HFD-fed mice
Experimental: (§1) Experimental Animals: the experiments are conducted under the guidelines of the Institutional Animal Care and Use Committee of Central Taiwan University of Science and Technology. As previously described, four-week-old male C57BL/6J mice (n=63) is purchased from the National Laboratory Animal Breeding and Research Center, Ministry of Science and Technology. After 1-week of acclimatization, mice are designed to initiate the study, and the study lasts for 12 weeks. […] The CON group and high-fat control (HF) group are given with vehicle only. The low-fat diet consisted of fat 10%, whereas the high-fat diet (HFD) consisted of fat 45% (of total energy, % kcal). The compositions of the experimental diets are shown as described. At the end of the study, food is derived from the animals (from 10 p.m. to 10 a.m.). On the next day, the mice are sacrificed, and blood and tissue are collected for analysis. Livers, skeletal muscles, and white adipose tissues (WATs) (including epididymal, mesenteric and retroperitoneal WAT) are excised and weighed, and then immediately stored in a freezer at −80° C. Heparin (30 units/mL) (Sigma) is added to blood samples. Plasma samples are collected by centrifugation at 1600 g for 15 min at 4° C. within 30 min, and plasma is obtained for insulin and leptin level analysis.
The experiment is performed as in a previously described protocol. Total RNA from the liver tissue is isolated with a Trizol reagent (Molecular Research Center, Inc., Cincinnati, Ohio, USA) according to the manufacturer's directions. Total RNA (1 μg) is reverse transcribed to cDNA with 5 μL of Moloney murine leukemia virus reverse transcriptase (Epicenter, Madison, Wis., USA) as a previously described protocol. […] The relative density of the band is evaluated using AlphaDigiDoc 1201 software (Alpha Innotech Co., San Leandro, Calif., USA). All of the measured PCR products are normalized to the amount of cDNA of GAPDH in each sample.

phospho-AMPK (Thr172) = test: Western blotting of phospho-AMPK (Thr172) in liver tissue and skeletal muscle; conditions: HFD-fed mice
Experimental: as §1
Protein extractions and immunoblots for the determination of membrane GLUT4, phospho-AMPK (Thr172), and phospho-Akt (Ser 473) proteins are carried out on frozen skeletal muscle and liver tissue from mice, which follows a previous paper. Additionally, membrane GLUT4 is carried out on frozen skeletal muscle from mice, and the total membrane fractions are collected with buffer and centrifuged as a previously described. The protein contents of membrane GLUT4, phospho-AMPK, phospho-Akt, total AMPK, and total Akt are detected by western blotting. Western blotting has been determined as described elsewhere. Subsequently, antibodies are detected using horseradish peroxidase linked to a goat anti-IgG rabbit secondary antibody and visualized using an ECL system. Membrane GLUT4, structural proteins GAPDH and β-actin are purchased from Santa Cruz Biotechnology (Santa Cruz, Calif., USA); phospho-AMPK was obtained from Abcam Inc. (Cambridge, Mass., USA); phospho-Akt, total AMPK, and total Akt are from Cell Signaling Technology, Inc. (Danver Mass., USA); the BCA protein assay kit is from Thermo Scientific (Rockford, Ill., USA); and the ECL reagent kit is from GE Healthcare BioSciences (Buckinghamshire, UK). The secondary antibody antirabbit is from Jackson ImmunoResearch Laboratories, Inc. (West Grove, Pa., USA). The density blotting is analyzed using Alpha Easy FC software (Alpha Innotech Corp., Randburg, South Africa). Structural proteins GAPDH and β-actin are obtained by stripping the nitrocellulose membrane proteins of liver and skeletal muscle, respectively.

[1] = system: phospho-Akt (Ser 473)/total Akt; test: Western blotting of phospho-Akt (Ser 473)/total Akt; conditions: HFD-fed mice, vs HF mice
Experimental: as §1
Protein extractions and immunoblots for the determination of membrane GLUT4, phospho-AMPK (Thr172), and phospho-Akt (Ser 473) proteins are carried out on frozen skeletal muscle and liver tissue from mice, which follows a previous paper. […] The protein contents of membrane GLUT4, phospho-AMPK, phospho-Akt, total AMPK, and total Akt are detected by western blotting. Western blotting has been determined as described elsewhere. Subsequently, antibodies are detected using horseradish peroxidase linked to a goat anti-IgG rabbit secondary antibody and visualized using an ECL system. […] The density blotting is analyzed using Alpha Easy FC software (Alpha Innotech Corp., Randburg, South Africa). […]

CC(C)[C@@H](C)C=C[C@@H](C)[C@H]1CC[C@H]2C3=CCC4C[C@@H](O)CC[C@]4(C)C3=CC[C@]12C (stereo partly drawn) [ergostatrien-3β-ol, ergosta-7,9(11),22-trien-3β-ol]
significantly increased: protein contents of phospho-AMPK (phospho-AMPK (Thr172); liver tissue, 10 mg/kg/day) | protein contents of phospho-AMPK (phospho-AMPK (Thr172); liver tissue, 20 mg/kg/day) | protein contents of phospho-AMPK (phospho-AMPK (Thr172); liver tissue, 40 mg/kg/day) | protein contents of phospho-AMPK (phospho-AMPK (Thr172); skeletal muscle, 10 mg/kg/day) | protein contents of phospho-AMPK (phospho-AMPK (Thr172); skeletal muscle, 20 mg/kg/day) | protein contents of phospho-AMPK (phospho-AMPK (Thr172); skeletal muscle, 40 mg/kg/day)
increase: mRNA level of PPARα (PPARα mRNA; 10 mg/kg/day) | mRNA level of PPARα (PPARα mRNA; 20 mg/kg/day) | mRNA level of PPARα (PPARα mRNA; 40 mg/kg/day)
higher: levels of phospho-Akt/total Akt ([1]; 10 mg/kg/day) | levels of phospho-Akt/total Akt ([1]; 20 mg/kg/day) | levels of phospho-Akt/total Akt ([1]; 40 mg/kg/day)
